# Legend:
# [1] = tested on: orchiectomized (ORX) rats; assay: Action of increasing prostate weight in orchiectomized (ORX) rats (Test Example 3); format: in vivo, rat; settings: 30 mg/kg s.c. once daily for 8 days, ORX SD rats, Mean ± SD
# Protocol: Action of Increasing Prostate Weight in Rats After Orchiectomized (ORX) Rats
# Orchiectomy was performed in 8-week-old male SD rats. From 5 days postoperation, the compound of the present invention (Example 60, 30 mg/kg), dissolved in a 5% dimethyl sulfoxide-containing olive oil solution, was subcutaneously injected once daily for 8 days. On the next day after final administration, the wet weight of the ventral prostate was measured to evaluate the AR agonistic effect of the compound of the present invention.
# [2] = tested on: orchiectomized (ORX) rats; assay: Action of increasing prostate weight and bone mineral density in orchiectomized (ORX) rats (Test Example 4); format: in vivo, rat; settings: 60 mg/kg s.c. once daily, 5 days weekly, 4 weeks, ORX SD rats, Mean ± SD; for Bone mineral density: right femur
# Protocol: Action of Increasing Prostate Weight and Bone Mineral Density in Orchiectomized (ORX) Rats
# Orchiectomy was performed in 12-week-old male SD rats. From the next day postoperation, the positive control compound dihydrotestosterone (DHT, 10 mg/kg) and the compound of the present invention (Example 60, 60 mg/kg), each dissolved in a 5% dimethyl sulfoxide-containing olive oil solution, were subcutaneously injected once daily, 5 days weekly, for 4 weeks. On the next day after final administration, the wet weight of the ventral prostate was measured to evaluate the AR agonistic effect of the compound of the present invention. On the next day following final administration, moreover, the right femur was removed, and fixed overnight in a 10% neutrally buffered formalin solution. Then, the bone mineral density at the site ranging from the diaphysis to the proximal end was measured by the method of double energy X-ray absorption using a bone mineral content-measuring machine (Aloka, DCS-600) to evaluate increasing action of bone mineral density of the compound of the present invention.
# [3] = target: T1, Rat androgen receptors (rat AR) (Rattus norvegicus, UniProt P15207); assay: Test for competitive binding to rat androgen receptors; settings: 3H-testosterone, rat prostate AR fraction; hydroxyflutamide taken as 100
# T1 construct: from tissue; host or cells: prostate of orchiectomized male SD rats (100,000 x g supernatant)
# T1 sequence (P15207 1-902): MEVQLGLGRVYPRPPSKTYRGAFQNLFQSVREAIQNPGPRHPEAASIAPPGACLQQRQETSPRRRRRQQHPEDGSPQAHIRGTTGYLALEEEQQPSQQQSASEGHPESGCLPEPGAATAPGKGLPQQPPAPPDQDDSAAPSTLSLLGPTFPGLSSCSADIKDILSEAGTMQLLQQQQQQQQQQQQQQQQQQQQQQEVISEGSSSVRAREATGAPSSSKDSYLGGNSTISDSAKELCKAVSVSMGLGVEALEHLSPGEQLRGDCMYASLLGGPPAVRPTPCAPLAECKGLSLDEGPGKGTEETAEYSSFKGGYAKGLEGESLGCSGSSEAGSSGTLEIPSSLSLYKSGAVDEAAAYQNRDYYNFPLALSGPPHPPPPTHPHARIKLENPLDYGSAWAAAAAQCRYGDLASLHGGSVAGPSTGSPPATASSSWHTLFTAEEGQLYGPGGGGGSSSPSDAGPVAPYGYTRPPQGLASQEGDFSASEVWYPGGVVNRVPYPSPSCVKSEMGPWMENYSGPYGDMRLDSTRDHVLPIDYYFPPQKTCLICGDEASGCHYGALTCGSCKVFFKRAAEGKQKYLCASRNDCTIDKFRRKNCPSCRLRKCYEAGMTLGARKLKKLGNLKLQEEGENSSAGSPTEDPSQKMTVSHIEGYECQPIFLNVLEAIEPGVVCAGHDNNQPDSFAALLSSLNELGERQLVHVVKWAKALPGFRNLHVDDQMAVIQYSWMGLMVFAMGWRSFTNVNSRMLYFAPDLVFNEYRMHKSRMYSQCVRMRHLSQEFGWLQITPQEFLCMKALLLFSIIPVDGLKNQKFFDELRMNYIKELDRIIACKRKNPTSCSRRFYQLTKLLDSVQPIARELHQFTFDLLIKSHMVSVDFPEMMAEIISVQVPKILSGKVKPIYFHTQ
# Protocol: Test for Competitive Binding to Rat Androgen Receptors (Rat AR)
# Preparation of rat AR fraction: Prostates were harvested into ice-cooled ET buffer (10 mM Tris, 1 mM EDTA, 5 mM DTT, 10 mM sodium molybdate, pH 7.4) 3 days after orchiectomy in 11-week-old male SD rats. The prostate was finely cut, and ET buffer was added, whereafter the mixture was homogenized using a homogenizer. The homogenate was ultracentrifuged (100,000×g, 60 min, 4° C.), and the supernatant was used as a rat AR fraction (hereinafter referred to as ARF).
# Binding test: ^3H-testosterone (hereinafter referred to as ^3H-T) was diluted with ET buffer. Dihydrotestosterone (DHT) was prepared so as to have a concentration (final concentration 1 μM) 400 times the maximum concentration of ^3H-T (2.5 nM). The ^3H-T solution was added to a 1.5 ml tube containing DHT, no DHT, or the test compound with a varying concentration. Further, 200 μg ARF was added to adjust the final volume to 100 μl. The mixture was incubated for 2 hours at 4° C., and then 300 μl of a 0.05% dextran T70-1.0% activated carbon solution was added. The mixture was further incubated for 15 minutes in ice to remove the free ^3H-T. After centrifugation (4° C., 2,500 rpm, 5 min), 275 μl of the supernatant was harvested into a liquid scintillation vial, and 2 ml of clear-sol was added. The mixture was stirred, allowed to stand, and measured for ^3H radioactivity with a liquid scintillation counter.
# Calculation of the relative binding inhibition rate: The binding inhibition rate (%) of the compound according to the present invention was calculated from the following equation, and the 50% inhibition concentration (IC50) was calculated by the probit analysis of the concentration-binding inhibition curve.
# The relative binding inhibition rate (RBA: Relative Binding Affinity) was obtained from the following equation (Endocrinology 138, 863-870, 1997): RBA=100×(IC50 of hydroxyflutamide)/(IC50 of the compound of the present invention) • RBA's of the compounds of the present invention, calculated as above, are shown in Table 10.
# AR = assay: Assignment of compounds as having AR agonistic or AR antagonistic action (description, no method given); settings: compounds named as usable for category A diseases
# orchiectomized rats = assay: Inhibitory action on testosterone-induced prostate weight increase in orchiectomized rats (Test Example 5); format: in vivo, rat; settings: TP 1 mg/kg s.c. alone, once daily for one week, orchiectomized SD rats, Mean ± SD
# Protocol: Inhibitory Action on Testosterone-induced Prostate Weight Increase in Orchiectomized Rats
# Testes were removed from 8-week-old male SD rats. From 5 days postoperation, 1 mg/kg of testosterone propionate (hereinafter referred to as TP) and 30 mg/kg of the compound of the present invention were simultaneously injected once daily for one consecutive week. The compound of the present invention was suspended in a 0.5% methyl cellulose solution, while TP was dissolved in cottonseed oil containing 5% ethanol. Each of the test compounds was subcutaneously administered. On the next day after final administration, the wet weight of the ventral prostate was measured to evaluate the AR antagonistic effect of the compound of the present invention on TP-induced prostate weight increase.
Compound,Weight of prostate [1],Prostate weight [2],Prostate weight ([2]; listed as Ex. 60) [mg/body weight 100 g],Bone mineral density ([2]; 60 mg/kg),"Bone mineral density ([2]; listed as Ex. 60, 60 mg/kg) [mg/cm^2]",RBA (Relative Binding Affinity = 100 x IC50 of hydroxyflutamide / IC50 of the compound) [3],AR agonistic action (AR),Prostate weight (orchiectomized rats) [mg/body weight 100 g]
CCS(=O)(=O)NCC(C)(C)C1Nc2ccc([N+](=O)[O-])cc2C2C=CCC21 (centres unmarked) [Example 60],significantly increased the prostate weights,significant increases in the prostate weights,56 ± 13,significantly increased the bone mineral density,132 ± 7,814,AR agonistic action,–
"CCC(=O)O[C@H]1CC[C@H]2[C@@H]3CCC4=CC(=O)CC[C@]4(C)[C@H]3CC[C@]12C [TP, testosterone propionate]",–,–,–,–,–,–,–,80.4 ± 13.7
